# Data published in ChEMBL document CHEMBL2331100, “Inhibition pattern of sulfamide-related compounds in binding to carbonic anhydrase isoforms I, II, VII, XII and XIV” (Bioorg Med Chem, 2013).
# Tests used:
# Carbonic anhydrase 12 = Carbonic anhydrase 12 (Homo sapiens, UniProt O43570); experiment: Inhibition of human carbonic anhydrase 12 preincubated for 15 mins by CO2 hydration stopped-flow assay
# Carbonic anhydrase 2 = Carbonic anhydrase 2 (Homo sapiens, UniProt P00918); experiment: Inhibition of human carbonic anhydrase 2 preincubated for 15 mins by CO2 hydration stopped-flow assay
# Carbonic anhydrase 1 = Carbonic anhydrase 1 (Homo sapiens, UniProt P00915); experiment: Inhibition of human carbonic anhydrase 1 preincubated for 15 mins by CO2 hydration stopped-flow assay
# Carbonic anhydrase 14 = Carbonic anhydrase 14 (Homo sapiens, UniProt Q9ULX7); experiment: Inhibition of human carbonic anhydrase 14 preincubated for 15 mins by CO2 hydration stopped-flow assay
# Carbonic anhydrase 7 = Carbonic anhydrase 7 (Homo sapiens, UniProt P43166); experiment: Inhibition of human carbonic anhydrase 7 preincubated for 15 mins by CO2 hydration stopped-flow assay
# Carbonic anhydrase 7, sequence (P43166 whole entry): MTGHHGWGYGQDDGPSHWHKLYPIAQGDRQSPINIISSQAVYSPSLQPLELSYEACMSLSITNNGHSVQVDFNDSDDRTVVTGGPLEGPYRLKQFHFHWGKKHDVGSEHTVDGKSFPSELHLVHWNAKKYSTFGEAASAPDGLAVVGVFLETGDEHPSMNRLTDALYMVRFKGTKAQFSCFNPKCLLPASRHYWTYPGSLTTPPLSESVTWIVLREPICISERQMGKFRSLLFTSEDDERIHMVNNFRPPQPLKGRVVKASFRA
# Carbonic anhydrase 1, sequence (P00915 whole entry): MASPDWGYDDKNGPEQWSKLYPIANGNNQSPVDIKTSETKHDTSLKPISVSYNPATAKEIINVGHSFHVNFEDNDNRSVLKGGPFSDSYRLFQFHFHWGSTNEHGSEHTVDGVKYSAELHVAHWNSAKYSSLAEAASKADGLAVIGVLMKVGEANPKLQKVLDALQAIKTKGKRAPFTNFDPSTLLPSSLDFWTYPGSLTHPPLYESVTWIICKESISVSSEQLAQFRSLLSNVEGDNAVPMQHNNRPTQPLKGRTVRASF
# Carbonic anhydrase 14, sequence (Q9ULX7 whole entry): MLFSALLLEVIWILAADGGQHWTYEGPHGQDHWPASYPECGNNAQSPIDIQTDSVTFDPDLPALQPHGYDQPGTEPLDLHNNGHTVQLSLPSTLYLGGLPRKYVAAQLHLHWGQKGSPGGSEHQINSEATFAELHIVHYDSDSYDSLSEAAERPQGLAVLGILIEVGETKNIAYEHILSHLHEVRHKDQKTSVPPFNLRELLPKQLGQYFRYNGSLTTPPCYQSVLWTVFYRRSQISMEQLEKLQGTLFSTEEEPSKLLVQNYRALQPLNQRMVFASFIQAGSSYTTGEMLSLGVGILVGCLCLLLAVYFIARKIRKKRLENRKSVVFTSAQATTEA
# Carbonic anhydrase 12, sequence (O43570 whole entry): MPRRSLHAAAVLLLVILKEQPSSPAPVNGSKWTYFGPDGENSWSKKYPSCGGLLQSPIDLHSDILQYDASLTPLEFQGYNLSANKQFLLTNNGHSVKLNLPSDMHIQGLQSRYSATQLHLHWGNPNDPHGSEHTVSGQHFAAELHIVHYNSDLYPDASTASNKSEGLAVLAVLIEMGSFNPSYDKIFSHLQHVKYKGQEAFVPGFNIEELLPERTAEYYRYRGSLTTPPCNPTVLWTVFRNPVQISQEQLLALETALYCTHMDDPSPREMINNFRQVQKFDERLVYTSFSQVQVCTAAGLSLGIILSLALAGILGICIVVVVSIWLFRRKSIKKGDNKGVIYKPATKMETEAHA
SMILES,Ki (Carbonic anhydrase 12),Ki (Carbonic anhydrase 2),Ki (Carbonic anhydrase 1),Ki (Carbonic anhydrase 14),Ki (Carbonic anhydrase 7)
COC(=O)[C@H](C)NS(=O)(=O)NC(=O)OC(C)(C)C,54.5 µM,> 200 µM,> 200 µM,5.38 µM,> 200 µM
COC(=O)[C@@H](NS(=O)(=O)N[C@H](C(=O)OC)C(C)C)C(C)C,73 µM,> 200 µM,> 200 µM,–,> 200 µM
O=S(=O)(NC1CC1)NC1CC1,0.77 µM,> 200 µM,> 200 µM,8.79 µM,0.16 µM
COC(=O)[C@H](C)NS(=O)(=O)N[C@@H](C)C(=O)OC,> 200 µM,> 200 µM,> 200 µM,7.66 µM,> 200 µM
O=S(=O)(NCCc1ccccc1)NCCc1ccccc1,> 200 µM,> 200 µM,> 200 µM,> 200 µM,> 200 µM
O=S(=O)(NCc1ccccc1)NCc1ccccc1 [BENZYL(BENZYLSULFAMOYL)AMINE],81.5 µM,0.65 µM,> 200 µM,–,0.38 µM
CC(C)(C)OC(=O)NS(=O)(=O)NCc1ccccc1,0.89 µM,161 µM,8.84 µM,40.4 µM,0.17 µM
O=S(=O)(NC1CCCCC1)NC1CCCCC1,0.7 µM,100 µM,6.64 µM,9.94 µM,0.32 µM
NS(=O)(=O)NCc1ccccc1,0.94 µM,0.12 µM,0.13 µM,0.84 µM,0.3 µM
COC(=O)CNS(=O)(=O)NC(=O)OC(C)(C)C,56.3 µM,55.7 µM,> 200 µM,5.92 µM,> 200 µM
O=S(=O)(N1CCOCC1)N1CCOCC1,9.1 µM,135 µM,> 200 µM,48.8 µM,0.47 µM
COC(=O)CCNS(=O)(=O)Oc1ccccc1O,65 µM,> 200 µM,88.7 µM,8.53 µM,68.7 µM

# Continued, values first:
Ki (Carbonic anhydrase 12),Ki (Carbonic anhydrase 2),Ki (Carbonic anhydrase 1),Ki (Carbonic anhydrase 14),Ki (Carbonic anhydrase 7),SMILES
61.2 µM,> 200 µM,> 200 µM,8.37 µM,> 200 µM,CCCCNS(=O)(=O)NCCC(=O)OC
65.4 µM,41.1 µM,62.2 µM,8.09 µM,> 200 µM,CCCC(CCC)CN(C(=O)OC(C)(C)C)S(=O)(=O)NCCC(=O)OC
> 200 µM,> 200 µM,> 200 µM,> 200 µM,> 200 µM,CCCCN(CCCC)S(=O)(=O)N(CCCC)CCCC
0.91 µM,> 200 µM,6.88 µM,–,0.32 µM,CCCN(CCC)S(=O)(=O)NC(=O)OC(C)(C)C
3.53 µM,60.3 µM,24.9 µM,7.1 µM,> 200 µM,CCCN(CCC)S(N)(=O)=O
70.8 µM,> 200 µM,> 200 µM,–,> 200 µM,COC(=O)CCNS(=O)(=O)NCCC(=O)OC
0.69 µM,66.3 µM,6.64 µM,9.79 µM,0.41 µM,CCCCNS(=O)(=O)NCCCC [BUTYL(BUTYLSULFAMOYL)AMINE]
0.73 µM,2.82 µM,3.66 µM,0.82 µM,0.7 µM,CCCCCCOS(N)(=O)=O [HEXYL SULFAMATE]
> 200 µM,> 200 µM,9.35 µM,–,> 200 µM,CCCN(CCC)S(=O)(=O)N(CCC)CCC
> 200 µM,124 µM,4.69 µM,> 200 µM,> 200 µM,CCCNS(=O)(=O)NCCC
0.89 µM,1.92 µM,2.98 µM,–,4.3 µM,CCCC(CCC)COS(N)(=O)=O
